Data on seven compounds can be found in patent US9890185B2, “Urea derivatives useful as kinase inhibitors” (Respivert Limited, priority 2013, dated 2018).

Experiment [1] deals with PBMCs. The experiment is described as follows: IL-2 release in CD3/CD28 stimulated PBMC cells (assay c). The conditions noted are these: Homo sapiens, read-out: IC50 Values for Inhibition of Cytokine Release, PBMCs IL-2. It is filed as cell-based. The method in brief:
(§1)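 Sandwich ELISA of supernatant IL-2 and IFN gamma; IC50 from dose-response curve. Cells: density-gradient PBMCs from healthy subjects on plate-bound anti-CD3 0.3 μg/mL + anti-CD28 3 μg/mL, compound added, 3 d culture.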

Experiment [2] has as its target p38 MAPKα isoform (MAPK14) (Homo sapiens (Human), UniProt Q16539). The experiment is described as follows: p38 MAPKα enzyme inhibition (FRET, Z-LYTE, Method 2). It is filed as biochemical. The method in brief:
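Z-LYTE FRET: p38 MAPKα (80 ng/mL for Method 1, 200 ng/mL for Method 2, pre-dilution) preincubated 2 hr RT with compound (4–0.004 μg/mL solutions), activity read via MAPKAP-K2 phosphorylation after 1 hr RT and 1 hr protease development. Coumarin/fluorescein ratio gives phosphorylation; % inhibition versus uninhibited control, IC50 from concentration-response curve.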

The subject of experiment [3] is PBMCs. The experiment is described as follows: IFN gamma release in CD3/CD28 stimulated PBMC cells (assay c). The class given is cell-based. The conditions noted are these: Homo sapiens, read-out: IC50 Values for Inhibition of Cytokine Release, PBMCs IFNγ. Put shortly:
as §1

The subject of experiment [4] is PBMCs. The experiment is described as follows: LPS-induced IL-8 release in PBMC cells (assay b). The conditions noted are these: Homo sapiens, PBMC; LPS-stimulated PBMCs; read-out: IC50 Values for Inhibition of Cytokine Release, PBMCs IL-8. The class given is cell-based, human. Put shortly:
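Cytokines (TNFα, IL-8) in supernatants were quantified by sandwich ELISA after a 24 h challenge with 1 ng/mL E. coli LPS at 37° C, 5% CO2. Healthy-donor PBMCs had been exposed to compound for 2 h beforehand. IC50 values were fitted from the concentration-response curves.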

A further experiment relates to d-U937 cells. The experiment is described as follows: Accumulation of β catenin in d-U937 cells (assay m). The conditions noted are these: percentage relative to Reference Compound at 1 μg/mL. It is filed as cell-based, human. Put shortly: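 Read-out: colourimetric cell-based immunoassay for endogenous β-catenin (OD450 minus 655 reference), normalised to crystal violet absorbance at 595 nm. Test compound or vehicle was applied for 18 hr to U937 monocytes first differentiated with PMA (100 ng/mL) for 48–72 hr.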

Experiment [5] has as its system PBMCs. The experiment is described as follows: Cell mitosis assay in PBMCs (assay g). It is filed as cell-based. The conditions noted are these: Homo sapiens, PBMC, test compound 5 μg/mL. The method in brief: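 Metaphase arrest with 0.1 μg/mL demecolcine during the final 2 hr of a 20 hr compound exposure, which follows 48 hr of 2% PHA stimulation of healthy-donor human PBMCs. Mitotic lymphocytes counted by flow cytometry (anti-phospho-histone 3 plus propidium iodide). Inhibition expressed relative to 0.5% DMSO.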

Broadly, the IC50 is the midpoint of a concentration-inhibition curve. Broadly, the inhibition is the share of the control response that was lost under treatment. Read a low inhibition as little suppression.

Chain of p38 MAPKα isoform (MAPK14) (Q16539 whole entry, canonical isoform): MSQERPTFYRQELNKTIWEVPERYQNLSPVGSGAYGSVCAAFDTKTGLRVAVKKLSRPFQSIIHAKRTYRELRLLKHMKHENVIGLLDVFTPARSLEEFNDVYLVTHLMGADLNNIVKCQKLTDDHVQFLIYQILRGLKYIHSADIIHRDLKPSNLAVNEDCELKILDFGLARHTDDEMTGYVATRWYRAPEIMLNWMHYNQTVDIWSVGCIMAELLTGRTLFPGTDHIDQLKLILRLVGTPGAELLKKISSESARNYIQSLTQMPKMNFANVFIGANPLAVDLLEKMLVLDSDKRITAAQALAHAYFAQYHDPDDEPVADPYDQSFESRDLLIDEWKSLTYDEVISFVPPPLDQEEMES

For the compound `COc1cccc(Nc2cc(Oc3ccc(NC(=O)Nc4cc(C(C)(C)C)cc(CC(N)=O)c4OC)c4ccccc34)ccn2)c1` [Example 33, 2-(5-(tert-Butyl)-2-methoxy-3-(3-(4-((2-((3-methoxyphenyl)amino)pyridin-4-yl)oxy)naphthalen-1-yl)ureido)phenyl)acetamide], the IC50 worked out at 117 nM in the experiment with PBMCs [1], 109 nM in experiment [2], 11 nM in the experiment on PBMCs [3] and 1.7 nM with PBMCs [4]. Moreover, the entries for the “% β-catenin induction” value in the experiment with d-U937 cells (test compound 1 μg/mL), in the experiment with d-U937 cells (test compound 5 μg/mL) and in the experiment with d-U937 cells (test compound 10 μg/mL) were −1.0%, 3.5% and 9.5%, respectively. In the experiment with PBMCs [5], this compound showed an inhibition at 5 µg/mL of 31.3%.

Consider `COc1c(CNC(C)=O)cc(C(C)(C)C)cc1NC(=O)Nc1ccc(Oc2ccnc(Nc3ccccc3)c2)c2ccccc12` [Example 35, N-(5-(tert-Butyl)-2-methoxy-3-(3-(4-((2-(phenylamino)pyridin-4-yl)oxy)naphthalen-1-yl)ureido)benzyl)acetamide], for which the IC50 in the experiment with PBMCs [1] turned out to be 221 nM; in experiment [2], 294 nM; with PBMCs [3] it was 10.9 nM; in the experiment with PBMCs [4], 3.4 nM. For the same compound, the results for the “% β-catenin induction” value in the experiment with d-U937 cells (test compound 1 μg/mL), in the experiment with d-U937 cells (test compound 5 μg/mL) and in the experiment with d-U937 cells (test compound 10 μg/mL) were 5.5%, 16.5% and 23.5%, respectively. Also, in the experiment with PBMCs [5], 5 µg/mL produced 50.6% inhibition.

As to `COc1cc(Nc2cc(Oc3ccc(NC(=O)Nc4cc(C(C)(C)C)cc(P(C)(C)=O)c4OC)c4ccccc34)ccn2)cc(C(N)=O)c1` [Example 37, 3-((4-((4-(3-(5-(tert-butyl)-3-(dimethylphosphoryl)-2-methoxyphenyl)ureido)-naphthalen-1-yl)oxy)pyridin-2-yl)amino)-5-methoxybenzamide], the IC50 is 48 nM in the experiment with PBMCs [1], 62 nM in experiment [2], 0.7 nM in the experiment with PBMCs [3] and 1.7 nM in the experiment on PBMCs [4]. Also, the “% β-catenin induction” value with d-U937 cells (test compound 1 μg/mL) is 2.0%; with d-U937 cells (test compound 5 μg/mL) it was 15.5%; in the experiment with d-U937 cells (test compound 10 μg/mL), 25.5%. In the experiment with PBMCs [5], the inhibition at 5 µg/mL is 43.2%.

With `COc1cc(Nc2cc(Oc3ccc(NC(=O)Nc4cc(C(C)(C)C)cc([S+](C)[O-])c4OC)c4ccccc34)ccn2)cc(OC)c1` (centres unmarked) [Example 40, 1-(5-(tert-Butyl)-2-methoxy-3-(methylsulfinyl)phenyl)-3-(4-((2-((3,5-dimethoxyphenyl)amino)pyridin-4-yl)oxy)naphthalen-1-yl)urea], the IC50 in the experiment on PBMCs [1] worked out at 179 nM; in experiment [2], 302 nM; in the experiment with PBMCs [3] it was 5.2 nM; in the experiment with PBMCs [4] it was 2.7 nM. Also, the “% β-catenin induction” value is on record as −2.0% with d-U937 cells (test compound 1 μg/mL), −2.0% with d-U937 cells (test compound 5 μg/mL) and −0.5% in the experiment on d-U937 cells (test compound 10 μg/mL). Also, the inhibition at 5 µg/mL with PBMCs [5] came to 44.3%.

Turning to `COc1cccc(Nc2cc(Oc3ccc(NC(=O)Nc4cc(C(C)(C)C)cc([S+](C)[O-])c4OC)c4ccccc34)ccn2)c1` (centres unmarked) [Example 41, 1-(5-(tert-Butyl)-2-methoxy-3-(methylsulfinyl)phenyl)-3-(4-((2-((3-methoxyphenyl)amino)pyridin-4-yl)oxy)naphthalen-1-yl)urea], the IC50 with PBMCs [1] was 184 nM; in experiment [2], 179 nM; with PBMCs [3], 6.9 nM; in the experiment with PBMCs [4], 2.9 nM. Further, the “% β-catenin induction” value with d-U937 cells (test compound 1 μg/mL) is on record as −1.0%; with d-U937 cells (test compound 5 μg/mL), −1.5%; in the experiment with d-U937 cells (test compound 10 μg/mL) it was 1.5%. In the experiment with PBMCs [5], this compound showed an inhibition at 5 µg/mL of 36%.

As for `COc1cccc(Nc2cc(Oc3ccc(NC(=O)Nc4cc(C(C)(C)C)cc(CNC(C)=O)c4OC)c4ccccc34)ccn2)c1` [Example 43, N-(5-(tert-Butyl)-2-methoxy-3-(3-(4-((2-((3-methoxyphenyl)amino)pyridin-4-yl)oxy)naphthalen-1-yl)ureido)benzyl)acetamide], the IC50 in the experiment on PBMCs [1] amounted to 30.4 nM; in experiment [2], 129 nM; in the experiment with PBMCs [3], 2.8 nM; with PBMCs [4], 1.4 nM. Also, the “% β-catenin induction” value in the experiment on d-U937 cells (test compound 1 μg/mL) is 7.5%; with d-U937 cells (test compound 5 μg/mL), 19.5%; with d-U937 cells (test compound 10 μg/mL), 20.5%. In the experiment on PBMCs [5], this compound gave an inhibition at 5 µg/mL of 62.1%.

Turning to `COc1cc(Nc2cc(Oc3ccc(NC(=O)Nc4cc(C(C)(C)C)cc(CNC(C)=O)c4OC)c4ccccc34)ccn2)cc(OC)c1` [Example 44, N-(5-(tert-Butyl)-3-(3-(4-((2-((3,5-dimethoxyphenyl)amino)pyridin-4-yl)oxy)naphthalen-1-yl)ureido)-2-methoxybenzyl)acetamide], the concentration for half-maximal inhibition (IC50) in the experiment with PBMCs [1] is 28.3 nM; in experiment [2], 175 nM; in the experiment on PBMCs [3], 2.3 nM; in the experiment with PBMCs [4] it was 1.3 nM. The results for the “% β-catenin induction” value in the experiment on d-U937 cells (test compound 1 μg/mL), in the experiment on d-U937 cells (test compound 5 μg/mL) and with d-U937 cells (test compound 10 μg/mL) were 5.0%, 8.0% and 11.0%, respectively. This compound yielded an inhibition at 5 µg/mL in the experiment with PBMCs [5] of 42.8%.
